# In ChEMBL document CHEMBL3991601, “The target landscape of clinical kinase drugs” (Science, 2017):
# Counter-ions that a name gives are not always drawn. Active and inactive are the calls of the source. For most assays here, no stated cut-off is given here; in the data, actives have a measured Kd and inactives only a lower limit.
# Experiments:
# [1] = molecular target: Adenylate kinase 2, mitochondrial (Homo sapiens, UniProt P54819)
# [2] = molecular target: Dual specificity protein kinase CLK1 (Homo sapiens, UniProt P49759)
# [3] = molecular target: Casein kinase II subunit alpha' (Homo sapiens, UniProt P19784)
# Heme oxygenase 2 = molecular target: T1, Heme oxygenase 2 (Homo sapiens, UniProt P30519)
# T1 sequence (P30519 whole entry): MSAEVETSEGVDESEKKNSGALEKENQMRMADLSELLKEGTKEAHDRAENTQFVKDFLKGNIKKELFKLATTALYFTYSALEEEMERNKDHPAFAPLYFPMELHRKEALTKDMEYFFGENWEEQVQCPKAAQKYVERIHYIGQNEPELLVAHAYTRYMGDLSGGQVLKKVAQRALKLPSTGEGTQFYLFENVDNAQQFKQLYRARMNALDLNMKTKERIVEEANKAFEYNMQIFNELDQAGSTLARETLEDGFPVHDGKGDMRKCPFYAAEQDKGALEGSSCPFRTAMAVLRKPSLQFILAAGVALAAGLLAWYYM
# [4] = molecular target: T2, Serine/threonine-protein kinase ICK (Homo sapiens, UniProt Q9UPZ9)
# T2 sequence (Q9UPZ9 whole entry): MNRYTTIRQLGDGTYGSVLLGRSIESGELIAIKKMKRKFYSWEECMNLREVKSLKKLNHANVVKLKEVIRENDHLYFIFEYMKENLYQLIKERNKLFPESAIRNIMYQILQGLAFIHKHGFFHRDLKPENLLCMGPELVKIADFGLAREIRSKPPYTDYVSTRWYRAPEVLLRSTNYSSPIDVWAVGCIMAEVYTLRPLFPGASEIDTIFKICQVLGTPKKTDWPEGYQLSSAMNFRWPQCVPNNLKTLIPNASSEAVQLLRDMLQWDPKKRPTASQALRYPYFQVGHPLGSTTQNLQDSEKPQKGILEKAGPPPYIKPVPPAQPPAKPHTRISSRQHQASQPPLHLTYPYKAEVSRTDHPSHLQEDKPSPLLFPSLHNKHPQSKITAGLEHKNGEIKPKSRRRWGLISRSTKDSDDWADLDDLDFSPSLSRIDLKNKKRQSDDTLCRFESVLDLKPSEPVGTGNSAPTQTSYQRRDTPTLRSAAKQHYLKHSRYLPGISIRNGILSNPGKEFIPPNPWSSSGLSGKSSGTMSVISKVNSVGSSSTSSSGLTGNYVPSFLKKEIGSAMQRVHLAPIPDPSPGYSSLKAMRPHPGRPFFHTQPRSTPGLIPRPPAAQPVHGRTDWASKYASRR
# [5] = molecular target: Insulin-like growth factor 1 receptor (Homo sapiens, UniProt P08069)
# [6] = molecular target: T3, Interleukin-1 receptor-associated kinase 4 (Homo sapiens, UniProt Q9NWZ3)
# T3 sequence (Q9NWZ3 whole entry): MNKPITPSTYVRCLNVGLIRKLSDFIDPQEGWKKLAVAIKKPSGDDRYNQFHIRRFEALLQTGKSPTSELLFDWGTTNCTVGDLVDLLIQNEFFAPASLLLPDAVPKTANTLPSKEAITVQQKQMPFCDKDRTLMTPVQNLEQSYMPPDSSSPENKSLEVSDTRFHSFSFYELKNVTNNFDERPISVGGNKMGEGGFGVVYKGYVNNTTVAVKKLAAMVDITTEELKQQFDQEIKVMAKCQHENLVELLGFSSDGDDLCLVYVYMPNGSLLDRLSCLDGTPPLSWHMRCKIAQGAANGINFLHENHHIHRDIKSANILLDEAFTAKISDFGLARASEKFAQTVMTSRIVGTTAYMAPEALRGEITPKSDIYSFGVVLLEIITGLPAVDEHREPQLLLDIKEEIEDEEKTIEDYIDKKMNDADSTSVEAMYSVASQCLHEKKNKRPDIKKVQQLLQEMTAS
# [7] = molecular target: T4, Serine/threonine-protein kinase Nek3 (Homo sapiens, UniProt P51956)
# T4 sequence (P51956 whole entry): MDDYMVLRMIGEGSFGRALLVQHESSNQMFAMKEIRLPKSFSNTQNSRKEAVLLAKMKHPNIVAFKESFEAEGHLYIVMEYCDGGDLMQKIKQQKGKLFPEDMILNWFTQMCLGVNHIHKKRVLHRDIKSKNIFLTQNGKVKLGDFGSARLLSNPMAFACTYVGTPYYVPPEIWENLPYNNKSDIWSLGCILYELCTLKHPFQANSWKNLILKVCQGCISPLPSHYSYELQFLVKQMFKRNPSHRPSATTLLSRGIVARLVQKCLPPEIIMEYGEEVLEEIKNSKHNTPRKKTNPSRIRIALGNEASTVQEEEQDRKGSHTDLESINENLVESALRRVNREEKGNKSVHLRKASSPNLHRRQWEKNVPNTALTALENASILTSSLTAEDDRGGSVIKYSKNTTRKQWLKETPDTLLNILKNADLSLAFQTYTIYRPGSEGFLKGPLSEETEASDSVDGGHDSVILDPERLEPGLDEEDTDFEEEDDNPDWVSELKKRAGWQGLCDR
# Chain of Insulin-like growth factor 1 receptor (P08069 31-736 limits assumed): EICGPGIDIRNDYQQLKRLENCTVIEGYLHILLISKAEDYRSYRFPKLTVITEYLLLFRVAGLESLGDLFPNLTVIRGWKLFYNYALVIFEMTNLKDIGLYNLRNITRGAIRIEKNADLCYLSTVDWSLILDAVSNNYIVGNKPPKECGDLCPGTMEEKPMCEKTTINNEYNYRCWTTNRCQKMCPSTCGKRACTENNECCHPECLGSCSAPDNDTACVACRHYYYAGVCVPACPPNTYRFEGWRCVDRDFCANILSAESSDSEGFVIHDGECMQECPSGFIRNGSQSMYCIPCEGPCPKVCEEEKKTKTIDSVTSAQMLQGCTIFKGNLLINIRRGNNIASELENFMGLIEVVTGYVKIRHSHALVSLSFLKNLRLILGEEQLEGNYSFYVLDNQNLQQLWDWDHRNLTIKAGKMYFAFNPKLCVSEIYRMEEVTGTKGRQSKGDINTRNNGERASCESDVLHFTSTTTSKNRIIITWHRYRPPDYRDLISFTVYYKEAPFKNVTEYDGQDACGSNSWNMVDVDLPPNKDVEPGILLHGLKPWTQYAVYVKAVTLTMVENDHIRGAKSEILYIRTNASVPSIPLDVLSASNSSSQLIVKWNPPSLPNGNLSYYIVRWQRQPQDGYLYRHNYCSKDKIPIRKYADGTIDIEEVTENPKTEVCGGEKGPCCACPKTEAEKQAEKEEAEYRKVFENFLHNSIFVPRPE
# Chain of Insulin-like growth factor 1 receptor (P08069 741-1367 limits assumed): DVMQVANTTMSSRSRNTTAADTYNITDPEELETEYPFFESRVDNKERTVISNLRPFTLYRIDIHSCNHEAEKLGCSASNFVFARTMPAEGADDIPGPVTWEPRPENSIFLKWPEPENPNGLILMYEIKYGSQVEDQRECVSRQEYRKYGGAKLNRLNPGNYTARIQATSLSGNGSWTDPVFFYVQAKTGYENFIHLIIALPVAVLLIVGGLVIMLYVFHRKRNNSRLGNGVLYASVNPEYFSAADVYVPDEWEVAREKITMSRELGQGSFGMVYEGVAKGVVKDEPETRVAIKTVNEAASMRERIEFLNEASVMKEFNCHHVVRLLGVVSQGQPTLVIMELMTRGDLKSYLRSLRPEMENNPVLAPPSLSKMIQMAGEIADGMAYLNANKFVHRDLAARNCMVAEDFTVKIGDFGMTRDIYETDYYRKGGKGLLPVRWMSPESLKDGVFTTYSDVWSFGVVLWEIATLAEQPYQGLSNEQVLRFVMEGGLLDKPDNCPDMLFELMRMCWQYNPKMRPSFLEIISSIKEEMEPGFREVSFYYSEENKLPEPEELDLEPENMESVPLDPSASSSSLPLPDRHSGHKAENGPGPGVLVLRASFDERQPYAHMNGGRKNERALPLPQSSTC
# Chain of Dual specificity protein kinase CLK1 (P49759 whole entry): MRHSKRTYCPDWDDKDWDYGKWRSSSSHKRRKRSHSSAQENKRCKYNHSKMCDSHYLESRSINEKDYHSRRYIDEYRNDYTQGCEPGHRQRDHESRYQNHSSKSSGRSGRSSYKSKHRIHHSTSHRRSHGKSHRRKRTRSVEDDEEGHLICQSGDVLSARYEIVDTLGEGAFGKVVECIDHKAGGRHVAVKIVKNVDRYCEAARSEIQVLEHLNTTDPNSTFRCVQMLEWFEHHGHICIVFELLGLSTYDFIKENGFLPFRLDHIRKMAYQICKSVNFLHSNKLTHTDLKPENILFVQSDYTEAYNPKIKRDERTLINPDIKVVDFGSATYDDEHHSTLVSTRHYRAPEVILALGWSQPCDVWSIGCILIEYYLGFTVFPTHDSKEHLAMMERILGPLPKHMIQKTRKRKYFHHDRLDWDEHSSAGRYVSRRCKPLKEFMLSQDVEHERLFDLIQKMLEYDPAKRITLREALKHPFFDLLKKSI
# Chain of Casein kinase II subunit alpha' (P19784 whole entry): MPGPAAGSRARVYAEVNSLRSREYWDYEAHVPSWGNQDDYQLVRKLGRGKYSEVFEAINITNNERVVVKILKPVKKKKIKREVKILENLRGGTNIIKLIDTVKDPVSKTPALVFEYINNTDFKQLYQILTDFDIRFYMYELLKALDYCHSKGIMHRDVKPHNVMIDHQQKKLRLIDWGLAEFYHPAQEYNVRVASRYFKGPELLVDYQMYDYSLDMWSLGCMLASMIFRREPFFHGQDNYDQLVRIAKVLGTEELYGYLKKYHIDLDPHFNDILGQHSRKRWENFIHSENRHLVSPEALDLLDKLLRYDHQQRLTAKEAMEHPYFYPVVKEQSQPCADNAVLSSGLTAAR
SMILES,Kd [1],Kd [2],Kd [3],Kd (Heme oxygenase 2),Kd [4],Kd [5],Kd [6],Kd [7]
C=CC(=O)N1CCC[C@H](n2c(=O)n(-c3ccc(Oc4ccccc4)cc3)c3c(N)ncnc32)C1,> 30 µM (inactive),> 30 µM (inactive),> 30 µM (inactive),> 30 µM (inactive),> 30 µM (inactive),> 30 µM (inactive),> 30 µM (inactive),> 30 µM (inactive)
Cc1nc2cc(-c3nn(C(C)C)c4ncnc(N)c34)ccc2o1,> 30 µM (inactive),> 30 µM (inactive),> 30 µM (inactive),> 30 µM (inactive),> 30 µM (inactive),> 30 µM (inactive),> 30 µM (inactive),> 30 µM (inactive)
COCc1c(-c2ccc(NC(=O)Nc3cc(C(F)(F)F)ccc3F)c(F)c2)c2c(N)ncnn2c1CN1CCOCC1,> 30 µM (inactive),> 30 µM (inactive),> 30 µM (inactive),> 30 µM (inactive),> 30 µM (inactive),> 30 µM (inactive),> 30 µM (inactive),> 30 µM (inactive)
Cc1nc(NC(=O)N2CCC[C@H]2C(N)=O)sc1-c1ccnc(C(C)(C)C(F)(F)F)c1 [ALPELISIB],> 30 µM (inactive),> 30 µM (inactive),> 30 µM (inactive),> 30 µM (inactive),> 30 µM (inactive),> 30 µM (inactive),> 30 µM (inactive),> 30 µM (inactive)
O=C(Nc1c[nH]nc1-c1nc2cc(CN3CCOCC3)ccc2[nH]1)NC1CC1 [AT-9283],> 30 µM (inactive),2.04 µM (active),0.065 µM (active),> 30 µM (inactive),> 30 µM (inactive),> 30 µM (inactive),> 30 µM (inactive),–
Cc1cc(C(=O)NOCCO)c(Nc2ccc(I)cc2F)n(C)c1=O [AZD-8330],> 30 µM (inactive),> 30 µM (inactive),> 30 µM (inactive),> 30 µM (inactive),> 30 µM (inactive),> 30 µM (inactive),> 30 µM (inactive),> 30 µM (inactive)
Cn1cnc2c(F)c(Nc3ccc(Br)cc3F)c(C(=O)NOCCO)cc21 [BINIMETINIB],> 30 µM (inactive),> 30 µM (inactive),> 30 µM (inactive),> 30 µM (inactive),> 30 µM (inactive),> 30 µM (inactive),> 30 µM (inactive),> 30 µM (inactive)
CCn1c(C(=O)N(C2CC2)C2CC2)cc2c3c(ncn3C)c(Nc3cc(C)n(C)n3)nc21 [BMS-911543],> 30 µM (inactive),> 30 µM (inactive),> 30 µM (inactive),> 30 µM (inactive),> 30 µM (inactive),> 30 µM (inactive),> 30 µM (inactive),> 30 µM (inactive)
COc1c(OCCCN2CCOCC2)ccc2c1N=C(NC(=O)c1cnc(N)nc1)N1CCN=C21 [COPANLISIB],> 30 µM (inactive),> 30 µM (inactive),> 30 µM (inactive),> 30 µM (inactive),> 30 µM (inactive),> 30 µM (inactive),> 30 µM (inactive),> 30 µM (inactive)
CCS(=O)(=O)N1CCN(c2ccc(Nc3ncc(C(N)=O)c(NC4CC4)n3)cc2)CC1 [Cerdulatinib Hydrochloride],> 30 µM (inactive),> 30 µM (inactive),16.3 µM (active),> 30 µM (inactive),> 30 µM (inactive),> 30 µM (inactive),> 30 µM (inactive),1.1 µM (active)

# Further lines, results first:
Kd [1],Kd [2],Kd [3],Kd (Heme oxygenase 2),Kd [4],Kd [5],Kd [6],Kd [7],SMILES
> 30 µM (inactive),2.46 µM (active),> 30 µM (inactive),> 30 µM (inactive),> 30 µM (inactive),> 30 µM (inactive),> 30 µM (inactive),> 30 µM (inactive),Cc1csc(-c2nnc(Nc3ccc(Oc4ncccc4-c4ccnc(N)n4)cc3)c3ccccc23)c1 [AMG-900]
> 30 µM (inactive),> 30 µM (inactive),> 30 µM (inactive),> 30 µM (inactive),> 30 µM (inactive),> 30 µM (inactive),> 30 µM (inactive),> 30 µM (inactive),C=CC(=O)Nc1cc2c(Nc3ccc(F)c(Cl)c3)ncnc2cc1C#CC(C)(C)N1CCN(C)CC1 [AV-412 FREE BASE]
> 30 µM (inactive),> 30 µM (inactive),> 30 µM (inactive),> 30 µM (inactive),> 30 µM (inactive),> 30 µM (inactive),> 30 µM (inactive),> 30 µM (inactive),COc1cc2ncnc(Oc3cccc(NC(=O)Nc4cc(C(C)(C)C(F)(F)F)on4)c3)c2cc1OC [CEP-32496]
> 30 µM (inactive),> 30 µM (inactive),> 30 µM (inactive),> 30 µM (inactive),> 30 µM (inactive),> 30 µM (inactive),> 30 µM (inactive),> 30 µM (inactive),COCC(=O)NC/C=C/c1ccc2ncnc(Nc3ccc(Oc4ccc(C)nc4)c(C)c3)c2c1 [CP-724714]
1.04 µM (active),> 30 µM (inactive),> 30 µM (inactive),> 30 µM (inactive),> 30 µM (inactive),> 30 µM (inactive),> 30 µM (inactive),> 30 µM (inactive),C#Cc1cccc(Nc2ncnc3cc(OC)c(OCCCCCCC(=O)NO)cc23)c1 [CUDC-101]
> 30 µM (inactive),> 30 µM (inactive),> 30 µM (inactive),> 30 µM (inactive),> 30 µM (inactive),> 30 µM (inactive),> 30 µM (inactive),> 30 µM (inactive),Cc1cccc(-c2nn3c(c2-c2ccnc4ccc(C(N)=O)cc24)CCC3)n1 [GALUNISERTIB]
> 30 µM (inactive),> 30 µM (inactive),> 30 µM (inactive),> 30 µM (inactive),> 30 µM (inactive),> 30 µM (inactive),> 30 µM (inactive),> 30 µM (inactive),CCn1cc(-c2ccnc3[nH]c(-c4cccc(CN(C)C)c4)cc23)c(-c2ccc(NC(=O)N(C)C)cc2)n1 [GSK-1070916]
> 30 µM (inactive),> 30 µM (inactive),> 30 µM (inactive),> 30 µM (inactive),> 30 µM (inactive),> 30 µM (inactive),> 30 µM (inactive),> 30 µM (inactive),COc1ccc(S(=O)(=O)N(C(C)=O)c2ccccc2/C=C/c2cc[n+]([O-])cc2)cc1 [HMN-214]
> 30 µM (inactive),0.008 µM (active),3.5 µM (active),> 30 µM (inactive),0.863 µM (active),> 30 µM (inactive),26.1 µM (active),–,CNC(=O)c1nn(C)c2c1C(C)(C)Cc1cnc(Nc3ccc(N4CCN(C)CC4)cc3)nc1-2 [MILCICLIB]
> 30 µM (inactive),> 30 µM (inactive),> 30 µM (inactive),–,> 30 µM (inactive),> 30 µM (inactive),> 30 µM (inactive),> 30 µM (inactive),NC1(c2ccc(-c3nc4ccn5c(=O)[nH]nc5c4cc3-c3ccccc3)cc2)CCC1 [MK-2206]
